Measurements as given in the supplement of paper PMC4862054.

Tested on: HCC1937
Test: drug sensitivity score (DSS), CellTiter-Glo (DSS (AUC-based score)); higher = stronger drug effect (viability inhibition or cytotoxicity); extreme values may be limits of the assay
Conditions: incubation time: 72 h
Summary of the method: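 Using 20 µl of cell suspension per well, breast cancer cell lines were seeded into 384-well plates pre-loaded with compound at 5 concentrations in 10-fold steps across a compound-specific 10,000-fold range. Incubation lasted 72 h, after which CellTox Green fluorescence at 485/520 nm and then CellTiter-Glo luminescence, following 10 min at room temperature, were recorded. Each plate was normalised to 0.1 % DMSO and a positive kill control before the drug sensitivity score was derived from the area under the fitted dose-response curve.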

SMILES | drug sensitivity score
Cc1cc(Nc2cc(CN3CCOCC3)c3nc(C)c(Cc4ccc(Cl)cc4F)n3n2)n[nH]1 [Gandotinib] | 1.28
Oc1ccc2c(c1)CC[C@H](c1ccccc1)[C@@H]2c1ccc(OCCN2CCCC2)cc1 [Lasofoxifene] | 0
COC(=O)c1ccc2c(c1)NC(=O)/C2=C(\Nc1ccc(N(C)C(=O)CN2CCN(C)CC2)cc1)c1ccccc1 [Nintedanib] | 3.95
COCC1(CO)C(=O)C2CCN1CC2 (stereo unspecified) [Prima-1 Met] | 0
CNC(=O)c1ccc(N2C(=S)N(c3ccc(C#N)c(C(F)(F)F)c3)C(=O)C23CCC3)cc1F [RD162] | 0
S=P(N1CC1)(N1CC1)N1CC1 [Thio-TEPA] | 0
CN(C)CCOc1ccc(/C(=C(/CCCl)c2ccccc2)c2ccccc2)cc1 [Toremifene] | 1.98

Tested on: CAL-51
Test: drug sensitivity score (DSS), CellTiter-Blue viability (DSS (AUC-based score)); higher = stronger viability inhibition; extreme values may be limits of the assay
Conditions: incubation time: 72 h
Description: (§1)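 DSRT with the CellTiter-Blue (resazurin reduction) viability readout, fluorescence 560/590 nm, 72 h incubation. Plates were normalised to DMSO and benzethonium chloride controls. DSS is computed from the area under the fitted dose-response curve (5 or 9 concentrations).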

SMILES | drug sensitivity score
Cc1cc(Nc2cc(CN3CCOCC3)c3nc(C)c(Cc4ccc(Cl)cc4F)n3n2)n[nH]1 | 6.91
CN(C)c1nc(N(C)C)nc(N(C)C)n1 [Altretamine] | 0
COC(=O)c1ccc2c(c1)NC(=O)/C2=C(\Nc1ccc(N(C)C(=O)CN2CCN(C)CC2)cc1)c1ccccc1 [BIBF 1120] | 5.59
Nc1cc(C(F)(F)F)c(-c2cc(N3CCOCC3)nc(N3CCOCC3)n2)cn1 [BKM-120] | 11.6
O=P1(N(CCCl)CCCl)NCCCO1 (stereo unspecified) [Cyclophosphamide] | 0
C=C1C[C@@H]2[C@H](CC[C@]3(C)C(=O)CC[C@@H]23)[C@@]2(C)C=CC(=O)C=C12 [Exemestane] | 0
Oc1ccc2c(c1)CC[C@H](c1ccccc1)[C@@H]2c1ccc(OCCN2CCCC2)cc1 [Lasofoxifene] | 0
COCC1(CO)C(=O)C2CCN1CC2 (stereo unspecified) [Prima-1 Met] | 0
S=P(N1CC1)(N1CC1)N1CC1 [Thio-TEPA] | 0
CN(C)CCOc1ccc(/C(=C(/CCCl)c2ccccc2)c2ccccc2)cc1 [Toremifene] | 0

Tested on: HDQ-P1
Test: as above
Conditions: incubation time: 72 h
Description: as §1

SMILES | drug sensitivity score
Cc1cc(Nc2cc(CN3CCOCC3)c3nc(C)c(Cc4ccc(Cl)cc4F)n3n2)n[nH]1 | 11.8
CN(C)c1nc(N(C)C)nc(N(C)C)n1 [Altretamine] | 0
COC(=O)c1ccc2c(c1)NC(=O)/C2=C(\Nc1ccc(N(C)C(=O)CN2CCN(C)CC2)cc1)c1ccccc1 [BIBF 1120] | 1.16
Nc1cc(C(F)(F)F)c(-c2cc(N3CCOCC3)nc(N3CCOCC3)n2)cn1 [BKM-120] | 9.78
O=P1(N(CCCl)CCCl)NCCCO1 (stereo unspecified) [Cyclophosphamide] | 0
C=C1C[C@@H]2[C@H](CC[C@]3(C)C(=O)CC[C@@H]23)[C@@]2(C)C=CC(=O)C=C12 [Exemestane] | 0
Oc1ccc2c(c1)CC[C@H](c1ccccc1)[C@@H]2c1ccc(OCCN2CCCC2)cc1 [Lasofoxifene] | 0
COCC1(CO)C(=O)C2CCN1CC2 (stereo unspecified) [Prima-1 Met] | 0
S=P(N1CC1)(N1CC1)N1CC1 [Thio-TEPA] | 0
CN(C)CCOc1ccc(/C(=C(/CCCl)c2ccccc2)c2ccccc2)cc1 [Toremifene] | 0

Tested on: SK-BR-3
Test: as above
Conditions: incubation time: 72 h
Description: as §1

SMILES | drug sensitivity score
Cc1cc(Nc2cc(CN3CCOCC3)c3nc(C)c(Cc4ccc(Cl)cc4F)n3n2)n[nH]1 | 6.64
CN(C)c1nc(N(C)C)nc(N(C)C)n1 [Altretamine] | 0
COC(=O)c1ccc2c(c1)NC(=O)/C2=C(\Nc1ccc(N(C)C(=O)CN2CCN(C)CC2)cc1)c1ccccc1 [BIBF 1120] | 2.7
Nc1cc(C(F)(F)F)c(-c2cc(N3CCOCC3)nc(N3CCOCC3)n2)cn1 [BKM-120] | 16.8
O=P1(N(CCCl)CCCl)NCCCO1 (stereo unspecified) [Cyclophosphamide] | 0
C=C1C[C@@H]2[C@H](CC[C@]3(C)C(=O)CC[C@@H]23)[C@@]2(C)C=CC(=O)C=C12 [Exemestane] | 0
Oc1ccc2c(c1)CC[C@H](c1ccccc1)[C@@H]2c1ccc(OCCN2CCCC2)cc1 [Lasofoxifene] | 0
COCC1(CO)C(=O)C2CCN1CC2 (stereo unspecified) [Prima-1 Met] | 0
S=P(N1CC1)(N1CC1)N1CC1 [Thio-TEPA] | 0
CN(C)CCOc1ccc(/C(=C(/CCCl)c2ccccc2)c2ccccc2)cc1 [Toremifene] | 0

Tested on: DU-4475
Test: as above
Conditions: incubation time: 72 h
Description: as §1

SMILES | drug sensitivity score
Cc1cc(Nc2cc(CN3CCOCC3)c3nc(C)c(Cc4ccc(Cl)cc4F)n3n2)n[nH]1 | 4.98
CN(C)c1nc(N(C)C)nc(N(C)C)n1 [Altretamine] | 0
COC(=O)c1ccc2c(c1)NC(=O)/C2=C(\Nc1ccc(N(C)C(=O)CN2CCN(C)CC2)cc1)c1ccccc1 [BIBF 1120] | 2.02
Nc1cc(C(F)(F)F)c(-c2cc(N3CCOCC3)nc(N3CCOCC3)n2)cn1 [BKM-120] | 6.63
O=P1(N(CCCl)CCCl)NCCCO1 (stereo unspecified) [Cyclophosphamide] | 0
C=C1C[C@@H]2[C@H](CC[C@]3(C)C(=O)CC[C@@H]23)[C@@]2(C)C=CC(=O)C=C12 [Exemestane] | 0
Oc1ccc2c(c1)CC[C@H](c1ccccc1)[C@@H]2c1ccc(OCCN2CCCC2)cc1 [Lasofoxifene] | 0
COCC1(CO)C(=O)C2CCN1CC2 (stereo unspecified) [Prima-1 Met] | 0
S=P(N1CC1)(N1CC1)N1CC1 [Thio-TEPA] | 0
CN(C)CCOc1ccc(/C(=C(/CCCl)c2ccccc2)c2ccccc2)cc1 [Toremifene] | 0

Tested on: MDA-MB-436
Test: as above
Conditions: incubation time: 72 h
Description: as §1

SMILES | drug sensitivity score
Cc1cc(Nc2cc(CN3CCOCC3)c3nc(C)c(Cc4ccc(Cl)cc4F)n3n2)n[nH]1 | 7.24
CN(C)c1nc(N(C)C)nc(N(C)C)n1 [Altretamine] | 0
COC(=O)c1ccc2c(c1)NC(=O)/C2=C(\Nc1ccc(N(C)C(=O)CN2CCN(C)CC2)cc1)c1ccccc1 [BIBF 1120] | 1.32
Nc1cc(C(F)(F)F)c(-c2cc(N3CCOCC3)nc(N3CCOCC3)n2)cn1 [BKM-120] | 4.25
O=P1(N(CCCl)CCCl)NCCCO1 (stereo unspecified) [Cyclophosphamide] | 0.105
C=C1C[C@@H]2[C@H](CC[C@]3(C)C(=O)CC[C@@H]23)[C@@]2(C)C=CC(=O)C=C12 [Exemestane] | 0
Oc1ccc2c(c1)CC[C@H](c1ccccc1)[C@@H]2c1ccc(OCCN2CCCC2)cc1 [Lasofoxifene] | 0
COCC1(CO)C(=O)C2CCN1CC2 (stereo unspecified) [Prima-1 Met] | 0
S=P(N1CC1)(N1CC1)N1CC1 [Thio-TEPA] | 0
CN(C)CCOc1ccc(/C(=C(/CCCl)c2ccccc2)c2ccccc2)cc1 [Toremifene] | 1.83

Tested on: Hs578T
Test: as above
Conditions: incubation time: 72 h
Description: as §1

SMILES | drug sensitivity score
Cc1cc(Nc2cc(CN3CCOCC3)c3nc(C)c(Cc4ccc(Cl)cc4F)n3n2)n[nH]1 | 7.69
CN(C)c1nc(N(C)C)nc(N(C)C)n1 [Altretamine] | 0
COC(=O)c1ccc2c(c1)NC(=O)/C2=C(\Nc1ccc(N(C)C(=O)CN2CCN(C)CC2)cc1)c1ccccc1 [BIBF 1120] | 1.63
Nc1cc(C(F)(F)F)c(-c2cc(N3CCOCC3)nc(N3CCOCC3)n2)cn1 [BKM-120] | 5.79
O=P1(N(CCCl)CCCl)NCCCO1 (stereo unspecified) [Cyclophosphamide] | 0
C=C1C[C@@H]2[C@H](CC[C@]3(C)C(=O)CC[C@@H]23)[C@@]2(C)C=CC(=O)C=C12 [Exemestane] | 0
Oc1ccc2c(c1)CC[C@H](c1ccccc1)[C@@H]2c1ccc(OCCN2CCCC2)cc1 [Lasofoxifene] | 0
COCC1(CO)C(=O)C2CCN1CC2 (stereo unspecified) [Prima-1 Met] | 0.00378
S=P(N1CC1)(N1CC1)N1CC1 [Thio-TEPA] | 0
CN(C)CCOc1ccc(/C(=C(/CCCl)c2ccccc2)c2ccccc2)cc1 [Toremifene] | 0

Tested on: CAL-120
Test: as above
Conditions: incubation time: 72 h
Description: as §1

SMILES | drug sensitivity score
Cc1cc(Nc2cc(CN3CCOCC3)c3nc(C)c(Cc4ccc(Cl)cc4F)n3n2)n[nH]1 | 8.01
CN(C)c1nc(N(C)C)nc(N(C)C)n1 [Altretamine] | 0
COC(=O)c1ccc2c(c1)NC(=O)/C2=C(\Nc1ccc(N(C)C(=O)CN2CCN(C)CC2)cc1)c1ccccc1 [BIBF 1120] | 6.55
Nc1cc(C(F)(F)F)c(-c2cc(N3CCOCC3)nc(N3CCOCC3)n2)cn1 [BKM-120] | 8.37
O=P1(N(CCCl)CCCl)NCCCO1 (stereo unspecified) [Cyclophosphamide] | 0
C=C1C[C@@H]2[C@H](CC[C@]3(C)C(=O)CC[C@@H]23)[C@@]2(C)C=CC(=O)C=C12 [Exemestane] | 0
Oc1ccc2c(c1)CC[C@H](c1ccccc1)[C@@H]2c1ccc(OCCN2CCCC2)cc1 [Lasofoxifene] | 0
COCC1(CO)C(=O)C2CCN1CC2 (stereo unspecified) [Prima-1 Met] | 0
S=P(N1CC1)(N1CC1)N1CC1 [Thio-TEPA] | 0
